Measurements published in patent publication US4740521A, “Saudin, a novel hypoglycemic agent” (Purdue Research Foundation, priority 1986, dated 1988).

Experiments:
[1] = in vivo; conditions: mouse, ip
Description: When suspended in carboxymethylcellulose (1.5%) and injected i.p. into mice according to the method of Miller and Tainter, Proc. Soc.

[2] = test system: plasma glucose level of non-fasted rats; experiment: plasma glucose level of non-fasted rats after I.P. injection (Table 1); assay type: in vivo, rats (male albino); conditions: 40 mg/kg I.P.
Method: (§1) Male albino rats weighing from 100-150 gm were divided into groups each comprised from 7-8 rats. […] Non-fasted and fasted rats were either non-alloxanized or injected I.V. with alloxan at a dose of 40 mg/kg two days before administration of saudin. Saudin was injected I.P. in the experiment groups in a suspension form containing 0.5% carboxymethylcellulose (CMC). Control groups received I.P. injection of 0.5% CMD at a dose not exceeding 1 ml/100 gm (Maximum volume used to suspend saudin). Blood samples were taken and the plasma glucose level was estimated as indicated in the results. The method used for glucose estimation was similar to that used by Free et al., Advances in Clinical Chemistry, E. H. Sobotaka and C. P. Steward (eds.), Academic Press, New York, 6, p. 67 (1973).
non-fasted rats in response to I.P. injection of
40 mg/kg. Blood samples were taken at 1 h intervals
in heparinized tubes and plasma was separated for […]

[3] = test system: plasma glucose level of alloxanized and non-alloxanized rats; experiment: plasma glucose level of alloxanized and non-alloxanized rats, fasted or non-fasted (Table 2); assay type: in vivo, rats (male albino)
Method: as §1
Effect of saudin on the plasma glucose level of alloxanized and
non-alloxanized rats either fasted
or non-fasted. Blood samples were taken 2 hours after saudin injection in
tubes containing heparin.
Plasma was separated for glucose estimation.

[4] = test system: blood sugar level of fasting mice (alloxanized); experiment: blood sugar level of fasting alloxanized mice (Table 3); assay type: in vivo; conditions: for Blood Sugar Level, mean S.E., 1 h: control 327 ± 46; for Blood Sugar Level, mean S.E., 2 h: control 360 ± 50; for Blood Sugar Level, mean S.E., 3 h: control 355 ± 48.5; for Blood Sugar Level, mean S.E., 4 h: control 378 ± 51.5; for Blood Sugar Level, mean S.E., 5 h: control 377 ± 57.5
Method: It is possible, therefore, that saudin operates by a different mechanism than the hypoglycemic agents heretofore employed, and may for that reason find unique application in medicine. The results of comparative tests are given in the following Table 3, using mice injected intravenously with 50 mg/kg of alloxan 3 days before the tests.

[5] = test system: animals; experiment: hypoglycemic effect in animals on injection (general statement); assay type: in vivo; conditions: read-out: dose producing a significant hypoglycemic effect, by injection, "above about"
Method: For the control of hyperglycemia, a dose between about 25 and about 110 mg/kg is effective, when administered at intervals of about 2 to about 12 hours in a tissue-compatible liquid. Normal saline solution is a suitable solvent diluent, or alternatively aqueous carboxymethylcellulose.

[6] = fasting mice, 50 mg/kg alloxan i.v. 3 days before, saudin 40 mg/kg, tolbutamide 150 mg/kg

SMILES | LD50 [1] [mg/kg] | hypoglycemic effect (in words) ([2]; non-alloxanized fed rats, two hours after injection) | Plasma glucose level, S.E., 0 h ([2]; non-fasted, non-alloxanized rats, 0 h, control 113.63 ± 7.50, saudin S.E. 3.05) [mg/dL] | Plasma glucose level, S.E., 1 h ([2]; non-fasted, non-alloxanized rats, 1 h, control 115.25 ± 5.78, saudin S.E. 4.45) [mg/dL] | Plasma glucose level, S.E., 2 h ([2]; non-fasted, non-alloxanized rats, 2 h, control 126.75 ± 4.62, saudin S.E. 2.31*, significant vs control at P < 0.01) [mg/dL] | Plasma glucose level, S.E., 3 h ([2]; non-fasted, non-alloxanized rats, 3 h, control 105.00 ± 3.23, saudin S.E. 3.78) [mg/dL] | Plasma glucose level, S.E., 4 h ([2]; non-fasted, non-alloxanized rats, 4 h, control 104.73 ± 4.11, saudin S.E. 4.81) [mg/dL] | Plasma glucose level, S.E., alloxanized fasted, Exp. ([3]; alloxanized (40 mg/kg alloxan I.V. 2 days before) fasted rats, 2 hours after saudin injection, control 116.66 ± 6.64, saudin S.E. 4.45) [mg/dL] | Plasma glucose level, S.E., alloxanized non-fasted, Exp. ([3]; alloxanized (40 mg/kg alloxan I.V. 2 days before) non-fasted rats, 2 hours after saudin injection, control 141.2 ± 3.43, saudin S.E. 10.78) [mg/dL] | effect on plasma glucose levels (in words) ([3]; fasted alloxanized and non-alloxanized rats, fed alloxanized rats) | Plasma glucose level, S.E., non-alloxanized fasted, Exp. ([3]; non-alloxanized fasted rats, 2 hours after saudin injection, control 81.14 ± 4.31, saudin S.E. 3.05) [mg/dL] | Plasma glucose level, S.E., non-alloxanized non-fasted, Exp. ([3]; non-alloxanized non-fasted rats, 2 hours after saudin injection, control 132.14 ± 3.82, saudin S.E. 2.22*, significant vs control at P < 0.01) [mg/dL] | hypoglycemic effect in alloxanized mice (in words) ([4]; alloxanized mice, unlike tolbutamide) | Blood Sugar Level, mean S.E., 0 h ([4]; fasting mice, 50 mg/kg alloxan i.v. 3 days before, saudin 40 mg/kg, tolbutamide 150 mg/kg, 0 h, control 230 ± 40) [mg %] | Blood Sugar Level, mean S.E., 1 h [4, 6] [mg %] | Blood Sugar Level, mean S.E., 2 h [4, 6] [mg %] | Blood Sugar Level, mean S.E., 3 h [4, 6] [mg %] | Blood Sugar Level, mean S.E., 4 h [4, 6] [mg %] | Blood Sugar Level, mean S.E., 5 h [4, 6] [mg %] | minimal effective dose [5] [mg/kg]
C[C@H]1C(=O)O[C@]23CC[C@]4(C)C(=O)OC[C@@]45O[C@](c4ccoc4)(C[C@@H]1[C@@]25C)O3 [saudin, (-)-(1R,4R,5S,7R,9S,13S,16R) -7-(3-furanyl)-4,13,16-trimethyl-2,8,11,17-tetraoxapentacyclo [7.6.1.1^1,7.0^5,16.0^9,13]heptadeca-3,12-dione] | 500 ± 15.8 | significant hypoglycemic effect | 109.75 | 127.86 | 107.00 | 97.00 | 98.00 | 103.5 | 142.8 | did not alter the plasma glucose levels | 79.86 | 111.85 | does not produce a hypoglycemic effect | 222 ± 25 | 288 ± 48.5 | 346 ± 55.4 | 342 ± 55.4 | 355 ± 54.3 | 443 ± 62.7 | > 10
CCCCNC(=O)NS(=O)(=O)c1ccc(C)cc1 [tolbutamide, reference compound] | – | – | – | – | – | – | – | – | – | – | – | – | – | – | 185 ± 36 | 212 ± 40.4 | 235 ± 40.8 | 262 ± 54 | 347 ± 64 | –
